Assay results taken from patent US12180193B2, “Accelerating fibrosarcoma protein degrading compounds and associated methods of use” (Arvinas Operations, Inc., priority 2020, dated 2024).
Like-named read-outs stand apart in the source and are kept apart here.

Legend:
BRAF V600E = biological target: T1, BRAF V600E (Homo sapiens, UniProt P15056, V600E); experiment: Cellular assay of target protein degradation, T-Rex 293 cells stably transfected with HA-BRAF_V600E (HA immunofluorescence, high content imaging); assay type: cell-based
T1 construct: expressed in transfected cells
Summary of the method: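 Doxycycline-induced (1 ng/mL) T-Rex 293 cells expressing HA-BRAF V600E treated 24 h at 37 °C with compound at 1 μM to 0.1 nM final in 0.1% DMSO. Remaining HA-tagged protein quantified by fixed-cell anti-HA immunofluorescence and high-content imaging; DC50 and Dmax (% of control) derived.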

BRAF G466V = biological target: T2, BRAF G466V (Homo sapiens, UniProt P15056, G466V); experiment: Cellular assay of target protein degradation, T-Rex 293 cells stably transfected with HA-BRAF G466V (HA immunofluorescence, high content imaging); assay type: cell-based
T2 construct: expressed in transfected cells
Summary of the method: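 Doxycycline-induced (0.75 ng/mL) cells treated 24 h at 37 °C with compound from 30 nM to 3 pM (0.1% DMSO). After fixation and permeabilisation, HA-tagged BRAF G466V immunostained and quantified by high-content imaging. DC50 and Dmax (percent of control) derived.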

[1] = half maximal degradation, T-Rex 293 HA-BRAF V600E; read-out: BRaf V600E DC50
[2] = half maximal degradation, T-Rex 293 HA-BRAF G466V; read-out: BRaf G466V DC50
[3] = maximum degradation observed, T-Rex 293 HA-BRAF V600E
[4] = maximum degradation observed, T-Rex 293 HA-BRAF G466V

T2 sequence (P15056 whole entry G466V): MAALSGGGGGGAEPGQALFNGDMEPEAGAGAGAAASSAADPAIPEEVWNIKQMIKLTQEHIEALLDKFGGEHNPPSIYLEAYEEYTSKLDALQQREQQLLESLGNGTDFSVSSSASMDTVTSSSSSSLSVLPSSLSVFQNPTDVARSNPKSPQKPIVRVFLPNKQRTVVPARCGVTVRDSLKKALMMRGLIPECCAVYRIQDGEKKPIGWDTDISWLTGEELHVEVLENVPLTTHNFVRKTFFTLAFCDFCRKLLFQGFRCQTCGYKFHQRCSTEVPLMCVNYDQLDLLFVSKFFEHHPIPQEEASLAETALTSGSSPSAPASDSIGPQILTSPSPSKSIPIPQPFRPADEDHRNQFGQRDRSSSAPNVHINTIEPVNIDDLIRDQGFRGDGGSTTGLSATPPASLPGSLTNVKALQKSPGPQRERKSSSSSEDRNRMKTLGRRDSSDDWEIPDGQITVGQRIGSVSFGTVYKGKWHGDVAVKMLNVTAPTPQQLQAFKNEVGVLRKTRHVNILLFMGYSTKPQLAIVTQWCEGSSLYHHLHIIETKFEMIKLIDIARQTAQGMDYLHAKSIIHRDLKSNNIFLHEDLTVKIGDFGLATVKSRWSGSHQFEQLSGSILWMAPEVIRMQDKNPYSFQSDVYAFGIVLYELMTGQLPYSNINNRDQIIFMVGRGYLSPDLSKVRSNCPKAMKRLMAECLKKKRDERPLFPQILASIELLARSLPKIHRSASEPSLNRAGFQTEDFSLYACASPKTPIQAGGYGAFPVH
T1 sequence (P15056 whole entry V600E): as the sequence (P15056 whole entry G466V) above, with V466G, V600E counted along it

| DC50 (BRAF V600E; [1]) [nM] | DC50 (BRAF G466V; [2]) [nM] | Dmax (BRAF V600E; [3]) [%] | Dmax (BRAF G466V; [4]) [%] | SMILES | DC50 (BRAF V600E; read-out: BRaf V600E DC50; half maximal degradation, T-Rex 293 HA-BRAF V600E) [nM] | DC50 (BRAF G466V; read-out: BRaf G466V DC50; half maximal degradation, T-Rex 293 HA-BRAF G466V) [nM] |
| --- | --- | --- | --- | --- | --- | --- |
| > 500 | > 30 |  |  | O=C1CCC(NC(=O)c2ccc(CCCN3CC4(C3)CN(c3ccc(-c5cnc6[nH]cc(C(=O)c7c(F)ccc(NS(=O)(=O)N8CC[C@@H](F)C8)c7F)c6c5)cc3)C4)cc2F)C(=O)N1 (stereo partly drawn) [Compound 356, 4-{3-[6-(4-{3-[2,6-difluoro-3-({[(3R)-3-fluoropyrrolidin-1-yl]sulfonyl}amino)benzoyl]-1H-pyrrolo[2,3-b]pyridin-5-yl}phenyl)-2,6-diazaspiro[3.3]heptan-2-yl]propyl}-N-(2,6-dioxopiperidin-3-yl)-2-fluorobenzamide] |  |  |
| 5 to 50 | 1 to 10 | 35 to 70 | > 70 | COc1cc(N2CCC(CN3CCN(c4ccc(-c5cnc6[nH]cc(C(=O)c7c(F)ccc(NS(=O)(=O)N8CC[C@@H](F)C8)c7F)c6c5)cc4)CC3)CC2)ccc1C(=O)N[C@H]1CCC(=O)NC1=O [Compound 357, 4-(4-{[4-(4-{3-[2,6-difluoro-3-({[(3R)-3-fluoropyrrolidin-1-yl]sulfonyl}amino)benzoyl]-1H-pyrrolo[2,3-b]pyridin-5-yl}phenyl)piperazin-1-yl]methyl}piperidin-1-yl)-N-[(3S)-2,6-dioxopiperidin-3-yl]-2-methoxybenzamide] |  |  |
| 5 to 50 | 1 to 10 | 35 to 70 | > 70 | COc1cc(N2CCC(CN3CCN(c4ccc(-c5cnc6[nH]cc(C(=O)c7c(F)ccc(NS(=O)(=O)N8CC[C@@H](F)C8)c7F)c6c5)cc4)CC3)CC2)ccc1C(=O)NC1CCC(=O)NC1=O (stereo partly drawn) [Compound 358, 4-(4-{[4-(4-{3-[2,6-difluoro-3-({[(3R)-3-fluoropyrrolidin-1-yl]sulfonyl}amino)benzoyl]-1H-pyrrolo[2,3-b]pyridin-5-yl}phenyl)piperazin-1-yl]methyl}piperidin-1-yl)-N-(2,6-dioxopiperidin-3-yl)-2-methoxybenzamide] |  |  |
| 5 to 50 | 1 to 10 | 35 to 70 | > 70 | COc1cc(N2CCN(CC3CCN(c4ccc(-c5cnc6[nH]cc(C(=O)c7c(F)ccc(NS(=O)(=O)N8CC[C@@H](F)C8)c7F)c6c5)cc4)CC3)CC2)ccc1C(=O)N[C@H]1CCC(=O)NC1=O [Compound 359, 4-(4-{[1-(4-{3-[2,6-difluoro-3-({[(3R)-3-fluoropyrrolidin-1-yl]sulfonyl}amino)benzoyl]-1H-pyrrolo[2,3-b]pyridin-5-yl}phenyl)piperidin-4-yl]methyl}piperazin-1-yl)-N-[(3S)-2,6-dioxopiperidin-3-yl]-2-methoxybenzamide] |  |  |
| < 5 | 1 to 10 | < 35 | > 70 | COc1cc(N2CCN(CC3CCN(c4ccc(-c5cnc6[nH]cc(C(=O)c7c(F)ccc(NS(=O)(=O)N8CC[C@@H](F)C8)c7F)c6c5)cc4)CC3)CC2)ccc1C(=O)NC1CCC(=O)NC1=O (stereo partly drawn) [Compound 360, 4-(4-{[1-(4-{3-[2,6-difluoro-3-({[(3R)-3-fluoropyrrolidin-1-yl]sulfonyl}amino)benzoyl]-1H-pyrrolo[2,3-b]pyridin-5-yl}phenyl)piperidin-4-yl]methyl}piperazin-1-yl)-N-(2,6-dioxopiperidin-3-yl)-2-methoxybenzamide] |  |  |
| 5 to 50 | 1 to 10 | 35 to 70 | > 70 | COc1cc(N2CC3(CN(CCc4ccc(-c5cnc6[nH]cc(C(=O)c7c(F)ccc(NS(=O)(=O)N8CC[C@@H](F)C8)c7F)c6c5)cc4)C3)C2)ccc1C(=O)N[C@H]1CCC(=O)NC1=O [Compound 361, 4-{6-[2-(4-{3-[2,6-difluoro-3-({[(3R)-3-fluoropyrrolidin-1-yl]sulfonyl}amino)benzoyl]-1H-pyrrolo[2,3-b]pyridin-5-yl}phenyl)ethyl]-2,6-diazaspiro[3.3]heptan-2-yl}-N-[(3S)-2,6-dioxopiperidin-3-yl]-2-methoxybenzamide] |  |  |
| 5 to 50 | 1 to 10 | 35 to 70 | > 70 | COc1cc(N2CC3(CN(CCc4ccc(-c5cnc6[nH]cc(C(=O)c7c(F)ccc(NS(=O)(=O)N8CC[C@@H](F)C8)c7F)c6c5)cc4)C3)C2)ccc1C(=O)NC1CCC(=O)NC1=O (stereo partly drawn) [Compound 362, 4-{6-[2-(4-{3-[2,6-difluoro-3-({[(3R)-3-fluoropyrrolidin-1-yl]sulfonyl}amino)benzoyl]-1H-pyrrolo[2,3-b]pyridin-5-yl}phenyl)ethyl]-2,6-diazaspiro[3.3]heptan-2-yl}-N-(2,6-dioxopiperidin-3-yl)-2-methoxybenzamide] |  |  |
| > 500 | > 30 |  |  | Nc1ccc(F)c(C(=O)c2c[nH]c3ncc(-c4ccc(N5CCC(CN6CC7(C6)CN(c6ccc(C(=O)N[C@H]8CCC(=O)NC8=O)c(F)c6)C7)CC5)cc4)cc23)c1F [Compound 363, 4-{6-[(1-{4-[3-(3-amino-2,6-difluorobenzoyl)-1H-pyrrolo[2,3-b]pyridin-5-yl]phenyl}piperidin-4-yl)methyl]-2,6-diazaspiro[3.3]heptan-2-yl}-N-[(3S)-2,6-dioxopiperidin-3-yl]-2-fluorobenzamide] |  |  |

The remaining lines, values behind:

| SMILES | DC50 (BRAF V600E; [1]) [nM] | DC50 (BRAF G466V; [2]) [nM] | Dmax (BRAF V600E; [3]) [%] | Dmax (BRAF G466V; [4]) [%] | DC50 (BRAF V600E; read-out: BRaf V600E DC50; half maximal degradation, T-Rex 293 HA-BRAF V600E) [nM] | DC50 (BRAF G466V; read-out: BRaf G466V DC50; half maximal degradation, T-Rex 293 HA-BRAF G466V) [nM] |
| --- | --- | --- | --- | --- | --- | --- |
| O=C1CCC(NC(=O)N2CCCc3c(C4CCN(CC5CCN(c6ccc(-c7cnc8[nH]cc(C(=O)c9c(F)ccc(NS(=O)(=O)N%10CC[C@@H](F)C%10)c9F)c8c7)cc6)CC5)CC4)ccnc32)C(=O)N1 (stereo partly drawn) [Compound 364, 5-(1-{[1-(4-{3-[2,6-difluoro-3-({[(3R)-3-fluoropyrrolidin-1-yl]sulfonyl}amino)benzoyl]-1H-pyrrolo[2,3-b]pyridin-5-yl}phenyl)piperidin-4-yl]methyl}piperidin-4-yl)-N-(2,6-dioxopiperidin-3-yl)-1,2,3,4-tetrahydro-1,8-naphthyridine-1-carboxamide] |  |  | 35 to 70 | > 70 | 5 to 50 | 1 to 10 |
| O=C1CCC(c2ccc(C3CCN(CC4CCN(c5ccc(-c6cnc7[nH]cc(C(=O)c8c(F)ccc(NS(=O)(=O)N9CC[C@@H](F)C9)c8F)c7c6)cc5)CC4)CC3)cn2)C(=O)N1 (stereo partly drawn) [Compound 365, (3R)-N-[3-(5-{4-[4-({4-[6-(2,6-dioxopiperidin-3-yl)pyridin-3-yl]piperidin-1-yl}methyl)piperidin-1-yl]phenyl}-1H-pyrrolo[2,3-b]pyridine-3-carbonyl)-2,4-difluorophenyl]-3-fluoropyrrolidine-1-sulfonamide] | 5 to 50 | 1 to 10 | > 70 | > 70 |  |  |
| O=C1CC[C@H](NC(=O)N2CCCc3c(C4CCN(CC5CCN(c6ccc(-c7cnc8[nH]cc(C(=O)c9c(F)ccc(NS(=O)(=O)N%10CC[C@@H](F)C%10)c9F)c8c7)cc6)CC5)CC4)ccnc32)C(=O)N1 [Compound 366, 5-(1-{[1-(4-{3-[2,6-difluoro-3-({[(3R)-3-fluoropyrrolidin-1-yl]sulfonyl}amino)benzoyl]-1H-pyrrolo[2,3-b]pyridin-5-yl}phenyl)piperidin-4-yl]methyl}piperidin-4-yl)-N-[(3S)-2,6-dioxopiperidin-3-yl]-1,2,3,4-tetrahydro-1,8-naphthyridine-1-carboxamide] | 5 to 50 | 1 to 10 | 35 to 70 | > 70 |  |  |
| O=C1CC[C@@H](NC(=O)N2CCCc3c(C4CCN(CC5CCN(c6ccc(-c7cnc8[nH]cc(C(=O)c9c(F)ccc(NS(=O)(=O)N%10CC[C@@H](F)C%10)c9F)c8c7)cc6)CC5)CC4)ccnc32)C(=O)N1 [Compound 367, 5-(1-{[1-(4-{3-[2,6-difluoro-3-({[(3R)-3-fluoropyrrolidin-1-yl]sulfonyl}amino)benzoyl]-1H-pyrrolo[2,3-b]pyridin-5-yl}phenyl)piperidin-4-yl]methyl}piperidin-4-yl)-N-[(3R)-2,6-dioxopiperidin-3-yl]-1,2,3,4-tetrahydro-1,8-naphthyridine-1-carboxamide] | > 500 | 1 to 10 |  | < 35 |  |  |
| O=C1CCC(c2ccc(N3CC4(CN(CC5CCN(c6ccc(-c7cnc8[nH]cc(C(=O)c9c(F)ccc(NS(=O)(=O)N%10CC[C@@H](F)C%10)c9F)c8c7)cc6)CC5)C4)C3)cc2)C(=O)N1 (stereo partly drawn) [Compound 368, (3R)-N-[3-(5-{4-[4-({6-[4-(2,6-dioxopiperidin-3-yl)phenyl]-2,6-diazaspiro[3.3]heptan-2-yl}methyl)piperidin-1-yl]phenyl}-1H-pyrrolo[2,3-b]pyridine-3-carbonyl)-2,4-difluorophenyl]-3-fluoropyrrolidine-1-sulfonamide] | 5 to 50 | 1 to 10 | 35 to 70 | 35 to 70 |  |  |
| O=C1CC[C@H](NC(=O)N2CCCc3c(N4CCN(CC5CCN(c6ccc(-c7cnc8[nH]cc(C(=O)c9c(F)ccc(NS(=O)(=O)N%10CC[C@@H](F)C%10)c9F)c8c7)cc6)CC5)CC4)ccnc32)C(=O)N1 [Compound 369, 5-(4-{[1-(4-{3-[2,6-difluoro-3-({[(3R)-3-fluoropyrrolidin-1-yl]sulfonyl}amino)benzoyl]-1H-pyrrolo[2,3-b]pyridin-5-yl}phenyl)piperidin-4-yl]methyl}piperazin-1-yl)-N-[(3S)-2,6-dioxopiperidin-3-yl]-1,2,3,4-tetrahydro-1,8-naphthyridine-1-carboxamide] | 5 to 50 | 1 to 10 | 35 to 70 | > 70 |  |  |
